14 compounds from patent US9409952B2, “Peptide-compound cyclization method” (Chugai Seiyaku Kabushiki Kaisha, priority 2011, dated 2016) can be followed below.

Series [1] is described as follows: PAMPA (parallel artificial membrane permeability assay). Conditions: for Papp at 18 hours, 50 µM: PAMPA. In kind it is in vitro ADME. Put shortly: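 Artificial membrane was 10% (w/v) egg lecithin plus 0.5% (w/v) cholesterol in dodecane on a PVDF filter. A 10 mM DMSO stock was added at 0.5% (v/v) to donor buffer (50 mM MOPSO, pH 6.5, 5.0% glycocholic acid). After 18 h at 37 °C, LC/MS or LC/UV gave donor and acceptor levels for Pe.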
For orientation: The PAMPA barrier holds no transporters, so it reflects passive diffusion.

Series [2] in a line: Metabolic stability in human hepatic microsome. In kind it is in vitro ADME. As to conditions: microsomes.
[3] abbreviates: membrane permeation rate (Pe), 50 mM MOPSO buffer pH 6.5 with 5.0% glycocholic acid, 37° C., 18 hours, read-out: iPAMPA Pe.
Where [4] appears, read: pH 7.4, human hepatic microsome, NADPH(+), read-out: CL NADPH(+).

Read-outs that look alike come from different tables or passages of the source. Starred links: 1 amine or outer side, 2 acyl side, 3 side chain; linkers in the order of their positions; H or OH if unused. Positions of bridges follow the written chain, without caps; N, C: chain ends. Non-standard residues stand in square brackets, D forms with d. Residues, ends and D or L forms follow the SMILES beside them. *: point of attachment. NMeF = CN[C@@H](Cc1ccccc1)C(=O)O; NMeGABA = CN(CCCC(=O)[*:2])[*:1]; NMeI = CC[C@H](C)[C@H](NC)C(=O)O; NMeβAla = CN(CCC(=O)[*:2])[*:1]; NMeL = CN[C@@H](CC(C)C)C(=O)O; NMeV = CN[C@H](C(=O)O)C(C)C; NMeA = CN[C@@H](C)C(=O)O; Piperidide = C1CCN(*)CC1; dNMeA = CN[C@H](C)C(=O)O; Sar = CNCC(=O)O; tBu = CC(C)(C)*

In the case of `CC[C@H](C)[C@H]1C(=O)N[C@@H](C)C(=O)N[C@@H](Cc2ccccc2)C(=O)N(C)[C@@H](Cc2ccccc2)C(=O)N[C@@H]([C@@H](C)O)C(=O)N(C)[C@@H](C)C(=O)N[C@@H](CC(C)C)C(=O)N[C@H](C(=O)N2CCCCC2)CC(=O)N[C@H](C(C)C)C(=O)N(C)[C@@H](C(C)C)C(=O)NCC(=O)N(C)[C@@H](CC(C)C)C(=O)N1C` [DP-217] ([dV][NMeV]G[NMeL][NMeI]AF[NMeF]T[NMeA]LD-Piperidide; lactam N-12), the Papp at 18 hours, 50 µM in series [1] (setting [3]) turned out to be 38 ×10⁻⁶ cm/s. Besides, the microsomal CLint at 1 uM in series [2] (setting [4]) stood at 37 µL/min/mg.

As to `CC[C@H](C)[C@@H]1NC(=O)[C@H](Cc2ccccc2)N(C)C(=O)[C@@H](C)NC(=O)C[C@@H](C(=O)N(C)[C@@H](Cc2ccccc2)C(=O)N(C)[C@@H](Cc2ccccc2)C(=O)N[C@@H](C)C(=O)N2CCCCC2)NC(=O)[C@H](C(C)C)NC(=O)CN(C)C(=O)[C@H]([C@@H](C)O)NC1=O` [DP-569] ([dA][NMeF]IT[Sar]VD[NMeF][NMeF]A-Piperidide; lactam N-7), the Papp at 18 hours, 50 µM in series [1] (setting [3]) is 21 ×10⁻⁶ cm/s. The microsomal CLint at 1 uM in series [2] (setting [4]) was determined as 203 µL/min/mg.

On to `CC[C@H](C)[C@H]1C(=O)N[C@H](C(=O)N2CCCCC2)CC(=O)N[C@H](C(C)C)C(=O)N[C@@H]([C@@H](C)O)C(=O)N(C)[C@@H](C)C(=O)N(C)[C@@H](C(C)C)C(=O)N[C@@H](Cc2ccccc2)C(=O)N(C)[C@@H](CC(C)C)C(=O)N[C@@H](C)C(=O)N(C)CC(=O)N1C` [DP-253] ([dV]T[NMeA][NMeV]F[NMeL]A[Sar][NMeI]D-Piperidide; lactam N-10), for which, in series [1] (setting [3]), the Papp at 18 hours, 50 µM was found to be 7.5 ×10⁻⁶ cm/s. In addition, the microsomal CLint at 1 uM in series [2] (setting [4]) turned out to be 42 µL/min/mg.

With `CC[C@H](C)[C@@H]1NC(=O)[C@H](C)N(C)C(=O)CCN(C)C(=O)C[C@@H](C(=O)N2CCCCC2)NC(=O)[C@H](CC(C)C)N(C)C(=O)[C@H](CC(C)C)N(C)C(=O)[C@H](C)N(C)C(=O)[C@H]([C@@H](C)O)NC(=O)[C@H](Cc2ccccc2)N(C)C(=O)[C@H](Cc2ccccc2)N(C)C1=O` [DP-140] ([NMeβAla][NMeA]I[NMeF][NMeF]T[NMeA][NMeL][NMeL]D-Piperidide; lactam N-10), the Papp at 18 hours, 50 µM in series [1] (setting [3]) worked out at 61 ×10⁻⁶ cm/s. For the same compound, in series [2] (setting [4]), the microsomal CLint at 1 uM was found to be 96 µL/min/mg.

For `CC[C@H](C)[C@H]1C(=O)NCC(=O)N(C)[C@@H](Cc2ccccc2)C(=O)N[C@@H]([C@@H](C)O)C(=O)N(C)[C@@H](C)C(=O)N[C@@H](CC(C)C)C(=O)N[C@H](C(=O)N2CCCCC2)CC(=O)N(C)[C@H](C)C(=O)N(C)[C@@H](C)C(=O)N[C@@H](Cc2ccccc2)C(=O)N(C)[C@@H](CC(C)C)C(=O)N[C@@H](C(C)C)C(=O)N1C` [DP-93] ([dNMeA][NMeA]F[NMeL]V[NMeI]G[NMeF]T[NMeA]LD-Piperidide; lactam N-12), the Papp at 18 hours, 50 µM in series [1] (pH 6.5) was 22 ×10⁻⁶ cm/s. Further, the microsomal CLint at 1 uM in series [2] (human, pH 7.4, CL NADPH(+)) worked out at 17 µL/min/mg.

As to `CC(C)C[C@H]1C(=O)N[C@@H](Cc2ccccc2)C(=O)N(C)[C@@H](C(C)C)C(=O)N[C@@H]([C@@H](C)O)C(=O)N[C@H](C(=O)N(C)[C@@H](Cc2ccccc2)C(=O)N(C)[C@@H](Cc2ccccc2)C(=O)N[C@@H](C)C(=O)N2CCCCC2)CC(=O)N(C)CCC(=O)N[C@@H](C(C)C)C(=O)N(C)[C@@H](CC(C)C)C(=O)N(C)[C@@H](Cc2ccccc2)C(=O)NCC(=O)N1C` [DP-298] ([NMeβAla]V[NMeL][NMeF]G[NMeL]F[NMeV]TD[NMeF][NMeF]A-Piperidide; lactam N-10), the Papp at 18 hours, 50 µM in series [1] (pH 6.5) came to 7 ×10⁻⁶ cm/s. Moreover, the microsomal CLint at 1 uM in series [2] (human, pH 7.4, CL NADPH(+)) amounted to 39 µL/min/mg.

As for `CC[C@H](C)[C@H](NC(=O)[C@H](C)N(C)C(=O)[C@H](Cc1ccccc1)N(C)C(=O)[C@H](CC(C)C)N(C)C(=O)[C@@H]1CC(=O)N[C@@H](C)C(=O)N(C)[C@@H](Cc2ccccc2)C(=O)N(C)[C@@H](CC(C)C)C(=O)N[C@@H]([C@@H](C)O)C(=O)N(C)CC(=O)N(C)[C@@H](Cc2ccccc2)C(=O)N1)C(=O)N1CCCCC1` [DP-918] (A[NMeF][NMeL]T[Sar][NMeF]D[NMeL][NMeF][NMeA]I-Piperidide; lactam N-7), the Papp at 18 hours, 50 µM in series [1] (setting [3]) is 5.3 ×10⁻⁶ cm/s. In addition, in series [2] (setting [4]), the microsomal CLint at 1 uM stood at 55 µL/min/mg.

On to `CC[C@H](C)[C@H](NC(=O)[C@H](CC(C)C)N(C)C(=O)[C@H](Cc1ccccc1)NC(=O)[C@H](Cc1ccccc1)N(C)C(=O)[C@@H]1CC(=O)N(C)[C@@H](C)C(=O)N[C@@H](C(C)C)C(=O)N[C@@H](CC(C)C)C(=O)N(C)[C@@H](Cc2ccccc2)C(=O)N[C@@H](CC(C)C)C(=O)N[C@@H]([C@@H](C)O)C(=O)N1)C(=O)N1CCCCC1` [DP-921] ([NMeA]VL[NMeF]LTD[NMeF]F[NMeL]I-Piperidide; lactam N-7), for which the Papp at 18 hours, 50 µM in series [1] (setting [3]) was 0.34 ×10⁻⁶ cm/s. Also, in series [2] (setting [4]), the microsomal CLint at 1 uM amounted to 88 µL/min/mg.

Take `CC(C)C[C@@H]1NC(=O)CCCN(C)C(=O)C[C@@H](C(=O)N2CCCCC2)NC(=O)[C@H](Cc2ccccc2)N(C)C(=O)[C@H]([C@@H](C)O)NC(=O)[C@H](CC(C)C)N(C)C(=O)[C@H](COC(C)(C)C)NC1=O` [DP-716] ([NMeGABA]LS(tBu)[NMeL]T[NMeF]D-Piperidide; lactam N-7): in series [1] (setting [3]), the Papp at 18 hours, 50 µM was determined as 21 ×10⁻⁶ cm/s. The microsomal CLint at 1 uM in series [2] (setting [4]) came to 133 µL/min/mg.

`CC[C@H](C)[C@@H]1NC(=O)[C@H]([C@@H](C)O)NC(=O)[C@H](C)N(C)C(=O)[C@H](CC(C)C)N(C)C(=O)[C@H](Cc2ccccc2)N(C)C(=O)[C@H](Cc2ccccc2)N(C)C(=O)[C@H](C)N(C)C(=O)[C@H](CC(C)C)N(C)C(=O)[C@@H](C(C)C)NC(=O)C[C@@H](C(=O)N2CCCCC2)NC1=O` [DP-172] ([dV][NMeL][NMeA][NMeF][NMeF][NMeL][NMeA]TID-Piperidide; lactam N-10): the “iPAMPA Pe” value in series [1] (membrane permeation rate (Pe), 50 mM MOPSO buffer pH 6.5 with 5.0% glycocholic acid, 37° C., 18 hours) was 7.0E−05. Also, the microsomal CLint at 1 uM in series [2] (setting [4]) worked out at 25 µL/min/mg.

Regarding `CC(C)C[C@H]1C(=O)N(C)[C@@H](Cc2ccccc2)C(=O)N[C@H](C(=O)N2CCCCC2)CC(=O)N[C@H](C(C)C)C(=O)N[C@@H](C)C(=O)N[C@@H]([C@@H](C)O)C(=O)N(C)[C@@H](C)C(=O)N[C@@H](Cc2ccccc2)C(=O)N1C` [DP-526] ([dV]AT[NMeA]F[NMeL][NMeF]D-Piperidide; lactam N-8), the Papp at 18 hours, 50 µM in series [1] (setting [3]) was found to be 14 ×10⁻⁶ cm/s. For the same compound, the microsomal CLint at 1 uM in series [2] (setting [4]) was found to be 49 µL/min/mg.

`CC(C)C[C@H]1C(=O)N[C@H](C(=O)N(C)[C@@H](Cc2ccccc2)C(=O)N[C@@H](C)C(=O)N2CCCCC2)CC(=O)N(C)[C@H](C)C(=O)N(C)[C@@H](Cc2ccccc2)C(=O)N(C)[C@@H](CC(C)C)C(=O)N[C@@H]([C@@H](C)O)C(=O)N(C)[C@@H](C)C(=O)N(C)[C@@H](CC(C)C)C(=O)N[C@@H](C(C)C)C(=O)N1C` [DP-313] ([dNMeA][NMeF][NMeL]T[NMeA][NMeL]V[NMeL]D[NMeF]A-Piperidide; lactam N-9) displayed a Papp at 18 hours, 50 µM in series [1] (pH 6.5) of 21 ×10⁻⁶ cm/s. The same compound had a microsomal CLint at 1 uM in series [2] (human, pH 7.4, CL NADPH(+)) of 61 µL/min/mg.

Consider `CC[C@H](C)[C@H](NC(=O)[C@H](Cc1ccccc1)N(C)C(=O)[C@@H]1CC(=O)N[C@@H](C)C(=O)N(C)[C@@H](CC(C)C)C(=O)N[C@@H]([C@@H](C)O)C(=O)N(C)CC(=O)N(C)[C@@H](Cc2ccccc2)C(=O)N[C@@H](CC(C)C)C(=O)N1)C(=O)N1CCCCC1` [DP-567] (A[NMeL]T[Sar][NMeF]LD[NMeF]I-Piperidide; lactam N-7), for which the Papp at 18 hours, 50 µM in series [1] (setting [3]) came out at 30 ×10⁻⁶ cm/s. Moreover, the microsomal CLint at 1 uM in series [2] (setting [4]) came to 224 µL/min/mg.

For the compound `CC(C)C[C@@H]1NC(=O)[C@H](CC(C)C)N(C)C(=O)[C@H](C)N(C)C(=O)C[C@@H](C(=O)N2CCCCC2)NC(=O)[C@H](CC(C)C)N(C)C(=O)[C@H](Cc2ccccc2)N(C)C(=O)[C@H](C)N(C)C(=O)[C@H]([C@@H](C)O)NC(=O)[C@H](Cc2ccccc2)N(C)C1=O` [DP-520] ([NMeA][NMeL]L[NMeF]T[NMeA][NMeF][NMeL]D-Piperidide; lactam N-9), in series [1] (setting [3]), the Papp at 18 hours, 50 µM is 29 ×10⁻⁶ cm/s. Further, the microsomal CLint at 1 uM in series [2] (setting [4]) is 130 µL/min/mg.
